Assay results published in PubChem BioAssay AID493102 (Broad Institute, 2011).

System: SK-MEL-5 TRPM1-promoter luciferase reporter, 24 h
Test: TRPM1 promoter luciferase signal decrease, dose response, MITF inhibitor project, cell-based, SK-MEL-5, cherry-picked, set 4 (AID 493102);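 further: actives lower the luciferase signal so the potency reflects inhibition of reporter expression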

Going from `CCN1CCN(c2ccc(S(=O)(=O)N3CCCCC3)cc2NC(=O)/C=C/c2ccc([N+](=O)[O-])cc2)CC1` to `O=C(Nc1cccc(Cl)c1)Nc1cc(S(=O)(=O)N2CCCCC2)ccc1Cl`, the AC50 rises from 7.51 µM to 12 µM (1.6-fold).

`COc1ccc(C)cc1Nc1nc(N)c2cc(OC)c(OC)cc2n1` and `COc1cc2nc(SCC(=O)NCc3ccco3)n(Cc3ccc(Cl)cc3)c(=O)c2cc1OC` are within 1.5-fold of each other in AC50: 14.2 µM for the first, 13.2 µM for the second.

Compared with `CCN(CCO)c1ccc(N=Nc2cc(C)[nH]n2)cc1`, `Cc1[nH]n(-c2ccccc2)c(=O)c1N=Nc1cccc(C(=O)O)c1` is 2.2-fold higher in AC50: 3.6 µM for the first, 8.07 µM for the second.

Going from `CCOc1ccc(-n2c(-c3ccc(OC)cc3)c[n+]3c2CCCCC3)cc1` to `Cc1ccc(C(=O)C[n+]2cc(-c3ccc(C)cc3)n3c2CCCCC3)cc1`, the AC50 rises from 2.13 µM to 3.63 µM (1.7-fold).

`CCOC(=O)/C=c1/s/c(=C/c2ccc3cc(OC)ccc3c2)c(=O)n1CC(=O)NCC1CCCO1` (stereo not drawn) and `COc1ccc(NC(=O)CCC(=O)N/N=C/c2ccc([N+](=O)[O-])s2)cc1` are within 1.5-fold of each other in AC50: 6.79 µM for the first, 7.62 µM for the second.

Going from `C/C(=N/NC(=O)C(O)(c1ccccc1)c1ccccc1)c1ccc([N+](=O)[O-])o1` to `N#C/C(=C(/O)c1ccc([N+](=O)[O-])o1)c1nc2ccccc2[nH]1`, the AC50 falls from 9.84 µM to 3.8 µM (2.6-fold).

Compared with `O=C(Nc1ccc(-c2nc3ncccc3o2)cc1)c1ccc([N+](=O)[O-])o1`, `O=C(Nc1cc(-c2nc3ncccc3o2)ccc1Cl)c1ccc([N+](=O)[O-])o1` is 1.6-fold higher in AC50: 3.63 µM for the first, 5.76 µM for the second.

Going from `CC(C)(C)C(=O)Cn1ncc(Br)c(Br)c1=O` to `CC(C)(C)C(=O)Cn1ncc(Cl)c(Cl)c1=O`, the AC50 rises from 3.92 µM to 10.4 µM (2.7-fold).

Going from `c1ccc(-c2cn3nc4c(nc3n2)CCCC4)cc1` to `N#Cc1cc2c(nc1SC1CC(=O)N(c3ccccc3)C1=O)CCC2` (stereo not drawn), the AC50 falls from 5.89 µM to 1.78 µM (3.3-fold).

First: Cc1ccccc1OCc1n(CC(=O)OC2CC(C)CCC2C(C)C)c2ccccc2[n+]1C (stereo not drawn)
Second: CCOC(=O)c1ccc2c(c1)n(CC)c(/C=C/N(C)c1ccccc1)[n+]2CC
The AC50 of the first is 2.3-fold higher: 7.52 µM for the first, 3.24 µM for the second.

`CC(C)C(=O)N1CCN(c2ccc(NC(=O)c3ccc([N+](=O)[O-])o3)cc2)CC1` and `O=C(Nc1ccccc1N1CCOCC1)c1ccc([N+](=O)[O-])o1` are within 1.5-fold of each other in AC50: 7.98 µM for the first, 11.9 µM for the second.

Compared with `CCCOCc1ccc(O)c2ncccc12`, `CCCC(=O)NC(c1ccc(OC)c(OC)c1)c1cc(Cl)c2cccnc2c1O` (stereo not drawn) is 1.7-fold lower in AC50: 15.5 µM for the first, 9.06 µM for the second.

First: O=C1c2ccccc2C(=O)c2c1ncn2-c1ccccc1
Second: Cc1cc(C=C2C(=O)c3ccccc3C2=O)c(C)n1-c1ccccc1
The AC50 of the first is 1.9-fold higher: 7.33 µM for the first, 3.78 µM for the second.

`CC(C)Oc1ccc(C(CCN)C2CCCCC2)cc1` (stereo not drawn) and `CC(C)Oc1ccc(C(CCNCc2ccc(O)cc2)c2ccccc2)cc1` (stereo not drawn) are within 1.5-fold of each other in AC50: 9.99 µM for the first, 12.8 µM for the second.

`OCCNc1c2ccccc2nc2ccccc12` and `O=c1c2ccccc2cnn1CCOc1ccccc1` are within 1.5-fold of each other in AC50: 7.28 µM for the first, 7.2 µM for the second.

`CC1(C)CC(NC(=O)c2ccc(Cl)c(S(=O)(=O)N(Cc3ccccc3)c3ccccc3)c2)CC(C)(C)N1` and `N=c1n(CC(=O)c2ccc(Br)s2)c2ccccc2n1Cc1ccccc1` are within 1.5-fold of each other in AC50: 10.3 µM for the first, 7.34 µM for the second.

`O=C(CCl)Nc1ccc(-c2ccccc2)cc1` and `Cc1ccc(NC2=C(Cl)C(=O)c3ccccc3C2=O)cc1` are within 1.5-fold of each other in AC50: 7.3 µM for the first, 5.25 µM for the second.

Going from `N#C/C(=C\C=C\c1ccccc1[N+](=O)[O-])C(=O)NCc1ccccc1` to `N#C/C(=C\C=C\c1ccccc1[N+](=O)[O-])C(=O)NC1CCCCC1`, the AC50 falls from 14.7 µM to 7.8 µM (1.9-fold).

Going from `COc1cc(/C=C/C(=O)c2ccc3c(c2)OCCO3)cc(Br)c1OCC(=O)N(C)C` to `O=C1Nc2ccc(Br)cc2/C1=C/C(=O)c1ccc2c(c1)OCO2`, the AC50 rises from 6.17 µM to 25.5 µM (4.1-fold).

Compared with `NNC(=O)c1cc2ccccc2cc1O`, `O=C(/C=C\c1ccccc1)NCC(=O)N/N=C/c1ccc(O)cc1O` is 3-fold lower in AC50: 24 µM for the first, 7.99 µM for the second.

Going from `COc1cccc(C(=O)Oc2c(CN3CCOCC3)cc(Cl)c3cccnc23)c1` to `Oc1cc(NCCN2CCOCC2)cc2cccnc12`, the AC50 rises from 9.89 µM to 25.9 µM (2.6-fold).

`CC(Oc1cccc(Br)c1)C(=O)NNC(=O)c1ccccn1` (stereo not drawn) and `CC(Oc1ccc(F)cc1)C(=O)Nc1nc(-c2ccccn2)cs1` (stereo not drawn) are within 1.5-fold of each other in AC50: 7.18 µM for the first, 9.42 µM for the second.

`CCOC(=O)CCc1ccc(NC(=O)/C=C/c2ccc([N+](=O)[O-])o2)cc1` and `N#CCc1ccc(NC(=O)/C=C/c2ccc([N+](=O)[O-])o2)cc1` are within 1.5-fold of each other in AC50: 6.83 µM for the first, 4.97 µM for the second.

`CCC(=O)OCCNc1cc(Sc2nc3ccccc3[nH]2)c2nonc2c1[N+](=O)[O-]` and `CC(=O)OCCNc1cc(Sc2nc3ccccc3[nH]2)c2nonc2c1[N+](=O)[O-]` are within 1.5-fold of each other in AC50: 9.14 µM for the first, 11.5 µM for the second.

`Cc1ccc(C(=O)N/N=C\c2ccc([N+](=O)[O-])s2)cn1` and `Nc1nc2ccccc2n1/N=C/c1ccc([N+](=O)[O-])s1` are within 1.5-fold of each other in AC50: 2.95 µM for the first, 2.81 µM for the second.

First: CCCCn1c(=N)n(CC(=O)c2ccc(Br)s2)c2ccccc21
Second: CCCCN(CC)CCCNC(=O)c1cc2c(=O)n(CC)c3ccccc3c2s1
The AC50 of the first is 2.9-fold lower: 7.45 µM for the first, 21.6 µM for the second.

`O=C(/C=C/c1ccc([N+](=O)[O-])s1)N1CCCC1` and `CC1CCCCC1NC(=O)/C(C#N)=C/C=C/c1ccccc1[N+](=O)[O-]` (stereo not drawn) are within 1.5-fold of each other in AC50: 9.86 µM for the first, 7.92 µM for the second.

`CC1CCCC(NCC(O)COC(c2ccc(F)cc2)c2ccc(F)cc2)C1C` (stereo not drawn) and `CC1CCCC(NC(=O)NC(=O)CCl)C1C` (stereo not drawn) are within 1.5-fold of each other in AC50: 10.8 µM for the first, 12.4 µM for the second.

Going from `Cc1ccc2nc(C)cc(Nc3ccc([N+](=O)[O-])cc3)c2c1` to `COc1ccc2nc(C)cc(NCc3cccc(C(F)(F)F)c3)c2c1`, the AC50 rises from 5.88 µM to 18.2 µM (3.1-fold).

First: N#C/C(=C\c1ccc(OCc2ccc(C(=O)O)cc2)cc1)C(=O)N1CCOCC1
Second: CC(=O)c1ccc(S(=O)(=O)N2CCN(C(=O)/C=C/c3ccc4ccccc4n3)CC2)cc1
The AC50 of the first is 10-fold lower: 1.19 µM for the first, 12 µM for the second.

First: O=C(Cn1ncc(Cl)c(Cl)c1=O)NC1CCCCC1
Second: O=C(Cn1ncc(Cl)c(Cl)c1=O)N1CCN(Cc2ccccc2)CC1
The AC50 of the first is 1.6-fold lower: 6.82 µM for the first, 10.9 µM for the second.

Compared with `Cc1ccc(-c2cn(-c3ccc(SC(F)F)cc3)c3[n+]2CCC3)cc1`, `Clc1ccc(-c2c[n+](Cc3cccc(Cl)c3)c3n2CCC3)cc1` is 5.3-fold higher in AC50: 1.64 µM for the first, 8.77 µM for the second.

Going from `CCN(CC)CCNC(=O)c1c(C)n(-c2ccccc2)c2cc(Br)c(OC)cc12` to `COc1cc2c(cc1OC)C(c1ccccc1)N(C(=O)CCl)CC2` (stereo not drawn), the AC50 falls from 12.9 µM to 5.36 µM (2.4-fold).

`CCN(CC)S(=O)(=O)c1cccc(C(=O)N/N=C(\C)c2ccc(O)cc2O)c1` and `O=C(N/N=C\c1cc(Cl)ccc1O)c1ccc(S(=O)(=O)N2CCCCC2)cc1` are within 1.5-fold of each other in AC50: 3.74 µM for the first, 2.81 µM for the second.

First: COc1cnc(-c2ccccn2)nc1NC(C)C
Second: CCOc1ccc(-n2c(O)c(/C=N/Nc3nc(C)cc(C)n3)c3ccccc3c2=O)cc1
The AC50 of the first is 3.6-fold higher: 12.4 µM for the first, 3.48 µM for the second.

Going from `COc1cccc(CNCCc2c[nH]c3ccccc23)c1OCc1ccccc1` to `CS(=O)(=O)c1ccc(S(=O)CC(=O)OCc2ccccc2)c([N+](=O)[O-])c1` (stereo not drawn), the AC50 falls from 14.4 µM to 5.46 µM (2.6-fold).

Compared with `O=C1C=CC(=C(c2ccc(O)cc2)c2ccc(O)cc2)C=C1`, `CN(C)CCNC(=O)/C(=C/c1ccc(-c2ccc(Cl)cc2Cl)o1)NC(=O)c1ccccc1` is 2-fold lower in AC50: 9.92 µM for the first, 4.97 µM for the second.

`COc1ccc(Br)cc1C(C[N+](=O)[O-])c1c(N)n(C)c(=O)n(C)c1=O` (stereo not drawn) and `NC(=O)C1CCN(C2=C(NS(=O)(=O)c3ccc(Br)cc3)C(=O)c3ccccc3C2=O)CC1` are within 1.5-fold of each other in AC50: 8.73 µM for the first, 11.9 µM for the second.

`CN(C)CC1CC/C(=C\c2ccc(O)cc2)C1=O` (stereo not drawn) and `C/C(=C\c1ccc(N(C)C)cc1)[N+](=O)[O-]` are within 1.5-fold of each other in AC50: 12.9 µM for the first, 13.1 µM for the second.

First: Cc1cc(C(=O)CCl)c(C)n1CCc1ccc(F)cc1
Second: Cc1cc(C(=O)CSc2nnc3ccccn23)c(C)n1-c1ccccc1
The AC50 of the first is 2-fold higher: 4.25 µM for the first, 2.08 µM for the second.

Going from `O=S(=O)(CC(CN1CCCCC1)N1CCCCC1)c1ccc2ccccc2c1` (stereo not drawn) to `Cc1ccc(NC(=O)CCl)cc1S(=O)(=O)N1CCCCCC1`, the AC50 falls from 12.5 µM to 7.55 µM (1.7-fold).

Compared with `O=C1/C(=N\S(=O)(=O)c2cccs2)C([n+]2ccccc2)=C([O-])c2ccccc21`, `O=C1NC(=O)N(Cc2ccccc2)C(=O)/C1=C/C=C/c1ccco1` is 4.5-fold higher in AC50: 1.07 µM for the first, 4.85 µM for the second.

Compared with `Cc1ccc2c(c1)COc1c3ccc(C(=O)O)cc3nn1-2`, `CCC(=O)Nc1cc2nn(-c3ccc(C)cc3)nc2cc1C` is 1.9-fold higher in AC50: 2.23 µM for the first, 4.15 µM for the second.

`CC1(C(=O)N/N=C/c2ccc([N+](=O)[O-])o2)CC1(Br)Br` (stereo not drawn) and `CC(NC(=O)c1ccc([N+](=O)[O-])o1)C12CC3CC(CC(C3)C1)C2` (stereo not drawn) are within 1.5-fold of each other in AC50: 10.3 µM for the first, 15.1 µM for the second.

Compared with `O=[N+]([O-])c1ccc(Sc2cc[n+]([O-])c3ccccc23)c([N+](=O)[O-])c1`, `CC(/C=N/NC(=O)c1cc(-c2ccncc2)nc2ccccc12)=C\c1ccco1` is 2.5-fold lower in AC50: 5.92 µM for the first, 2.4 µM for the second.

First: O=C(COC(=O)CCN1C(=O)/C(=C\C=C\c2ccccc2)SC1=S)Nc1cc(F)ccc1F
Second: CC(/C=C1\SC(=O)N(CCCC(=O)O)C1=O)=C\c1ccccc1
The AC50 of the first is 3.2-fold higher: 7.49 µM for the first, 2.36 µM for the second.

First: N#Cc1c(NC(=O)CSc2ncn[nH]2)sc2c1CCCC2
Second: CC(C)c1ccc(/C=C2\SC(=S)N(CCC(=O)N3CCCCC3CCO)C2=O)cc1 (stereo not drawn)
The AC50 of the first is 12-fold lower: 0.599 µM for the first, 7.43 µM for the second.

Going from `CCN1c2ccccc2NC2C1C(C(C)=O)C(=O)N2c1ccc(Cl)cc1` (stereo not drawn) to `CCCCn1c(=O)[nH]c(=O)c2c1nc(Cn1ncc(Cl)c(Cl)c1=O)n2CCC`, the AC50 falls from 12.7 µM to 8.12 µM (1.6-fold).

`Cc1cc(N2CCOCC2)ccc1/C=C\[N+](=O)[O-]` and `CCOc1c(Br)cc(CNC2CCCCCCC2)cc1OC` are within 1.5-fold of each other in AC50: 22.5 µM for the first, 20.5 µM for the second.
